Source: patent publication US20030105144A1, “Stabilized oral pharmaceutical composition” (priority 2001, published 2003)

Test: Solubility of celecoxib in PEG-400/water
Type: physicochemical
Settings: 2:1 mixture of PEG-400 and water
Protocol: Water-miscible, nonvolatile liquids such as polyethylene glycols have been successfully used in encapsulated solution formulations. Moreover, polyethylene glycols are also good solvents for drugs of low water solubility because they are known to improve aqueous drug solubility. For example, celecoxib, which has very low solubility in water, is highly soluble (>300 mg/g) in a 2:1 mixture of PEG-400 and water.

solubility: > 300 mg/g
Structure (SMILES): Cc1ccc(-c2cc(C(F)(F)F)nn2-c2ccc(S(N)(=O)=O)cc2)cc1 [celecoxib, 4-[5-(4-methylphenyl)-3-(trifluoromethyl)-1H-pyrazol-1-yl]benzenesulfonamide]
